Source: patent publication US4367339A, “Substituted N-nitroaniline compounds and inorganic and organic salts thereof useful for enhancing auxiliary branching, canopy flowering and crop yield of plant and as lodging inhibitors therefor” (priority 1980, dated 1983)
Structures can show the parent of a compound that is named as a salt.

Legend:
[1] = test system: soybeans (Glycine max) var. Adelphia; test: Increasing flowering of plants (soybeans); type: in vivo, soybean (Glycine max); details: three weeks after spraying
Experimental: In the following tests seedling soybean plants growing in plastic cups are sprayed with aqueous-acetone solutions or dispersions of test compounds when they have reached the 2nd to 3rd trifoliate stage. Test solutions or dispersions are prepared with 0.25 v/v Colloidal BIOFILM® surfactant and sufficient test compound to provide the plants with 0.5, 0.25, 0.125 or 0.06 kg/ha of said compound when the test solutions are sprayed on said plants from an overhead sprayer delivering 747 l/ha of solution.
After spraying the plants are placed on greenhouse benches and watered and fertilized. Three weeks after spraying the plants are examined and the amount of flowering determined for all plants. Data obtained are reported in the table below as percent increase in flowering over untreated controls.
From the data reported in Table VIII below it can be seen that the compounds of the present invention applied at rates of from 0.06 to 0.25 kg/ha enhance flowering of treated plant more than 10% over untreated controls. This response is particularly desirable for treatment of flowering varieties of ornamental plants as well as agronomic crops.

[2] = test system: soybean (Glycine max) Adelphia; test: Dwarfing and stem stiffening of soybeans (plant height, greenhouse, foliar spray); type: in vivo; details: three weeks after spraying
Experimental: (§1) In the following tests, test compounds are dissolved or dispersed in acetone-water (1:1) mixtures at the final concentration corresponding to the kg/ha rates indicated in the table below. The solution also contains 0.25% v/v colloidal BIOFILM® (a product of Colloidal Products Corp.) which is a mixture of alkyl aryl polyethoxyethanol, free and combined fatty acids, glycol ethers, dialkylbenzene carboxylate and 2-propanol.
(§2) The plant species used in these tests are barley (Hordeum vulgare), (Mexico) and soybean (Glycine max)Adelphia.
(§3) The solution or dispersion of the compound under test is sprayed at a rate of 747 l/ha with a moving nozzle along an overhead stationary track. The spray nozzle moves at a constant speed over the plants.
(§4) The plants are grown in plastic pots, and are well established at the time of treatment. The seedlings of barley are 10 to 20 cm in height, while the seedlings of soybeans are at the second to third trifoliate stage. Plants are watered prior to treatment and then sprayed to provide the kg/ha rate of test compound desired. After spraying the plants are placed on greenhouse benches and watered and fertilized in accordance with normal greenhouse procedures.
(§5) Three weeks after spraying the plants are measured and harvested. Harvesting is done at the boot stage. All treatments are replicated six times and comparisons are made against untreated controls. Data obtained are reported in Table VI below as percent reduction in plant height over untreated controls.

barley (Hordeum vulgare) = test: Dwarfing of barley (plant height, greenhouse, foliar spray); type: in vivo; details: three weeks after spraying
Experimental: as §1, §2, §3, §4, §5

[3] = test system: soybeans (Glycine max) Adelphia variety; test: Increasing axillary branching and improving the canopy of broad leaf plants (soybeans); type: in vivo, soybean (Glycine max); details: three weeks after treatment
Source text: In these tests seedling soybean plants approximately three weeks old, and grown in plastic pots to the 2nd to 3rd trifoliate stage, are sprayed with solutions or dispersions of test compound prepared as described in Example 7 above. The same spraying apparatus, described in Example 7 above, is used and after spraying the plants are placed on greenhouse benches and watered and fertilized. Three weeks after treatment the plants are examined to determine what effect the application of test compound has had on the axillary branching and canopy development of the treated plants.
Increased axillary branching and improved canopy are biological responses which are highly advantageous in the growing of ornamental plants. These responses also have advantage in many crops since increased branching may result in the greater production of fruit, while improved canopy tends to shade and suppress the growth of undesirable weeds that compete with the crops for sunlight, water and plant nutrients. Data obtained are reported in table VII below where axillary branching and canopy are reported as percent increase over untreated controls.

[4] = rate 0.125 kg/ha, potassium salt
[5] = rate 0.25 kg/ha, potassium salt
[6] = rate 0.125 kg/ha, listed as Methylamine salt with 2,4,6-tribromo-N--aci-nitroaniline

## Cn1c(-c2ccccc2)cc(-c2ccccc2)[n+]1C.O=[N+]([O-])[N-]c1c(Br)cc(Br)cc1I [1,2-Dimethyl-3,5-diphenylpyrazolium salt with 2,4-dibromo-6-iodo-N--aci-nitroaniline]
[1]; rate 0.5 kg/ha
  % Increase in Flowering over untreated controls: normal
[2]; rate 0.125 kg/ha
  % Reduction in Plant Height over untreated controls: > 10%
[2]; rate 0.25 kg/ha
  % Reduction in Plant Height over untreated controls: > 15%
[2]; rate 0.5 kg/ha
  % Reduction in Plant Height over untreated controls: > 25%

## O=[N+]([O-])Nc1c(Br)cc(Br)cc1Br [2,4,6-Tribromo-N--nitroaniline, potassium salt]
[1]; rate 0.5 kg/ha, potassium salt
  % Increase in Flowering over untreated controls: normal
[2]; [4]
  % Reduction in Plant Height over untreated controls: > 5%
[2]; [5]
  % Reduction in Plant Height over untreated controls: > 5%
[2]; rate 0.5 kg/ha, potassium salt
  % Reduction in Plant Height over untreated controls: > 30%
Barley (Hordeum vulgare); rate 0.17 kg/ha, potassium salt
  % Reduction in Plant Height over untreated controls: 2.7%
Barley (Hordeum vulgare); rate 0.50 kg/ha, potassium salt
  % Reduction in Plant Height over untreated controls: 11.8%
Barley (Hordeum vulgare); rate 1.5 kg/ha, potassium salt
  % Reduction in Plant Height over untreated controls: 2.0%
[3]; [4]
  % Increase in axillary branching over untreated controls: normal
[3]; [5]
  % Increase in axillary branching over untreated controls: normal
[3]; rate 0.5 kg/ha, potassium salt
  % Increase in Plant Canopy over untreated controls: normal

## O=[N+]([O-])Nc1c(Br)cc(Br)cc1Br [2,4,6-Tribromo-N--nitroaniline, sodium salt]
[1]; rate 0.5 kg/ha, sodium salt
  % Increase in Flowering over untreated controls: normal
[2]; rate 0.125 kg/ha, sodium salt
  % Reduction in Plant Height over untreated controls: > 35%
[2]; rate 0.25 kg/ha, sodium salt
  % Reduction in Plant Height over untreated controls: > 40%
Barley (Hordeum vulgare); rate 0.17 kg/ha, sodium salt
  % Reduction in Plant Height over untreated controls: 6.2%
Barley (Hordeum vulgare); rate 0.50 kg/ha, sodium salt
  % Reduction in Plant Height over untreated controls: 13.0%
Barley (Hordeum vulgare); rate 1.5 kg/ha, sodium salt
  % Reduction in Plant Height over untreated controls: 13.0%

## O=[N+]([O-])Nc1c(Br)cc(Br)cc1Br [2,4,6-Tribromo-N--nitroaniline with ammonia (1:1)]
[2]; rate 0.5 kg/ha
  % Reduction in Plant Height over untreated controls: > 60%
[2]; rate 2.0 kg/ha
  % Reduction in Plant Height over untreated controls: > 60%
Barley (Hordeum vulgare); rate 0.50 kg/ha
  % Reduction in Plant Height over untreated controls: 16.3%
Barley (Hordeum vulgare); rate 1.5 kg/ha
  % Reduction in Plant Height over untreated controls: 15.3%
[3]; rate 0.5 kg/ha
  % Increase in Plant Canopy over untreated controls: Injury

## O=[N+]([O-])Nc1c(Br)cc(Br)cc1Br [1,1-Dimethylpiperidinium salt with 2,4,6-tribromo-N--aci-nit] [1,1-Dimethylpiperidinium salt with 2,4,6-tribromo-N--aci-nitroaniline]
[1]; rate 0.125 kg/ha
  % Increase in Flowering over untreated controls: normal
[2]; rate 0.125 kg/ha
  % Reduction in Plant Height over untreated controls: > 25%
[2]; rate 0.25 kg/ha
  % Reduction in Plant Height over untreated controls: > 35%
[2]; rate 0.5 kg/ha
  % Reduction in Plant Height over untreated controls: > 50%
[3]; rate 0.125 kg/ha
  % Increase in Plant Canopy over untreated controls: normal
  % Increase in axillary branching over untreated controls: normal
[3]; rate 0.25 kg/ha
  % Increase in axillary branching over untreated controls: normal

## O=[N+]([O-])Nc1c(Br)cc(Br)cc1Br [2,4,6-Tribromo-N--nitroaniline with octylamine (1:1)]
Barley (Hordeum vulgare); rate 0.17 kg/ha
  % Reduction in Plant Height over untreated controls: 10.5%
Barley (Hordeum vulgare); rate 0.50 kg/ha
  % Reduction in Plant Height over untreated controls: 13.0%
Barley (Hordeum vulgare); rate 1.5 kg/ha
  % Reduction in Plant Height over untreated controls: 11.1%
[3]; rate 0.125 kg/ha, octylamine salt
  % Increase in axillary branching over untreated controls: normal
[3]; rate 0.5 kg/ha, octylamine salt
  % Increase in Plant Canopy over untreated controls: slight reduction

## O=[N+]([O-])Nc1c(Br)cc(Br)cc1Br [2,4,6-Tribromo-N--nitroaniline with dodecylamine]
[1]; rate 0.125 kg/ha
  % Increase in Flowering over untreated controls: normal
[3]; rate 0.125 kg/ha
  % Increase in Plant Canopy over untreated controls: normal
  % Increase in axillary branching over untreated controls: normal

## O=[N+]([O-])Nc1c(Br)cc(Br)cc1Br [2,4,6-Tribromo-N--nitroaniline with methylamine (1:1)]
[2]; rate 0.5 kg/ha
  % Reduction in Plant Height over untreated controls: > 60%
[2]; rate 2.0 kg/ha
  % Reduction in Plant Height over untreated controls: > 60%
Barley (Hordeum vulgare); rate 0.11 kg/ha
  % Reduction in Plant Height over untreated controls: 10%
Barley (Hordeum vulgare); rate 0.56 kg/ha
  % Reduction in Plant Height over untreated controls: > 50%
Barley (Hordeum vulgare); rate 2.24 kg/ha
  % Reduction in Plant Height over untreated controls: > 50%
[3]; [6]
  % Increase in Plant Canopy over untreated controls: normal
  % Increase in axillary branching over untreated controls: normal
[3]; rate 0.25 kg/ha, listed as Methylamine salt with 2,4,6-tribromo-N--aci-nitroaniline
  % Increase in axillary branching over untreated controls: normal
[3]; rate 0.5 kg/ha, listed as Methylamine salt with 2,4,6-tribromo-N--aci-nitroaniline
  % Increase in axillary branching over untreated controls: normal

## O=[N+]([O-])Nc1c(Br)cc(Br)cc1Br [2,4,6-Tribromo-N--nitroaniline tetrabutyl, ammonium salt]
Barley (Hordeum vulgare); rate 0.17 kg/ha, ammonium salt
  % Reduction in Plant Height over untreated controls: 10.5%
Barley (Hordeum vulgare); rate 1.5 kg/ha, ammonium salt
  % Reduction in Plant Height over untreated controls: 15.8%

## O=[N+]([O-])Nc1c(Br)cc(Br)cc1Br [Methyltriphenyl phosphonium salt with 2,4,6-tribromo-N--aci-] [Methyltriphenyl phosphonium salt with 2,4,6-tribromo-N--aci-nitroaniline]
[1]; rate 0.125 kg/ha
  % Increase in Flowering over untreated controls: normal
[2]; rate 0.125 kg/ha
  % Reduction in Plant Height over untreated controls: > 25%
[2]; rate 0.25 kg/ha
  % Reduction in Plant Height over untreated controls: > 35%
[2]; rate 0.5 kg/ha
  % Reduction in Plant Height over untreated controls: > 50%
[3]; rate 0.125 kg/ha
  % Increase in Plant Canopy over untreated controls: normal
  % Increase in axillary branching over untreated controls: normal
[3]; rate 0.25 kg/ha
  % Increase in axillary branching over untreated controls: normal

## O=[N+]([O-])Nc1c(Br)cc(Br)cc1Br [2,4,6-Tribromo-N--nitroaniline with dibenzylamine]
[1]; rate 0.125 kg/ha
  % Increase in Flowering over untreated controls: normal
[3]; rate 0.125 kg/ha
  % Increase in Plant Canopy over untreated controls: normal
  % Increase in axillary branching over untreated controls: normal
[3]; rate 0.25 kg/ha
  % Increase in axillary branching over untreated controls: normal
